Data: patent US20080311221A1, “LEWIS ACID AND OIL-SOLUBLE HYBRID PESTICIDE CONCENTRATE THAT SPONTANEOUSLY FORMS A WATER-BASED MICROEMULSION” (PBI/Gordon Corporation, priority 2007, published 2008)

What was measured:
[1] = Ambient storage stability test, HPLC, 25° C. for two and one-half months; format: physicochemical; conditions: for Final percent concentration of active in concentrate: HPLC after 25° C. for two and one-half months; for Initial percent concentration of active in concentrate: HPLC before storage, concentrate of Example 4 (so in the source); for % Diff: final vs initial, 25° C. for two and one-half months
Description: A further sample of the concentrate of Example 4 was tested under ambient storage conditions at 25° C. for two and one-half months. The sample was initially subjected to an HPLC test, and then again tested at the end of the storage period.

[2] = Standard accelerated chemical stability test, HPLC of each active, 40° C. for thirty days; format: physicochemical; conditions: for Final percent concentration of active in concentrate: HPLC after 40° C. for thirty days, sealed container; for Initial percent concentration of active in concentrate: HPLC before storage, concentrate of Example 4 (so in the source); for % Diff: final vs initial, 40° C. for thirty days
Description: Another sample of the concentrate Example 4 was subjected to a standard accelerated chemical stability test by conducting an HPLC analysis of each of the active ingredients to determine the percent concentration of each active in the concentrate. The sample was then placed in a sealed container and stored at 40° C. for thirty days. An HPLC analysis was repeated following the extended storage period. All are within accepted limits as established by U.S. EPA for pesticidal products.

| Structure (SMILES) | Final percent concentration of active in concentrate [1] [%] | Initial percent concentration of active in concentrate [1] [%] | % Diff [1] [%] | Final percent concentration of active in concentrate [2] [%] | Initial percent concentration of active in concentrate [2] [%] | % Diff [2] [%] |
| --- | --- | --- | --- | --- | --- | --- |
| CSC(=O)c1c(C(F)F)nc(C(F)(F)F)c(C(=O)SC)c1CC(C)C [Dithiopyr] | 1.921 | 1.977 | −2.83 | 1.909 | 1.977 | −3.44 |
| Cc1nn(-c2cc(NS(C)(=O)=O)c(Cl)cc2Cl)c(=O)n1C(F)F [Sulfentrazone] | 0.380 | 0.379 | 0.26 | 0.363 | 0.379 | −4.22 |
| O=C(O)COc1ccc(Cl)cc1Cl [2,4-D] | 9.154 | 9.203 | −0.53 | 8.987 | 9.203 | −2.35 |
| COc1c(Cl)ccc(Cl)c1C(=O)O [Dicamba] | 0.933 | 0.946 | −1.37 | 1.091 | 1.141 | −4.38 |
| O=C(O)c1c(Cl)ccc2cc(Cl)cnc12 [Quinclorac] | 1.929 | 1.91 | 0.99 | 1.876 | 1.91 | −1.78 |
